From ChEMBL document CHEMBL2073967, “Characterisation of cerivastatin as a P-glycoprotein substrate: studies in P-glycoprotein-expressing cell monolayers and mdr1a/b knock-out mice” (Naunyn Schmiedebergs Arch Pharmacol, 2004)

Target: ATP-dependent translocase ABCB1 (Homo sapiens, UniProt P08183)
Test: TP_TRANSPORTER: transepithelial transport in L-MDR1 cells
Format: functional, cell-based
Conditions: pig

Chain of ATP-dependent translocase ABCB1 (P08183 whole entry): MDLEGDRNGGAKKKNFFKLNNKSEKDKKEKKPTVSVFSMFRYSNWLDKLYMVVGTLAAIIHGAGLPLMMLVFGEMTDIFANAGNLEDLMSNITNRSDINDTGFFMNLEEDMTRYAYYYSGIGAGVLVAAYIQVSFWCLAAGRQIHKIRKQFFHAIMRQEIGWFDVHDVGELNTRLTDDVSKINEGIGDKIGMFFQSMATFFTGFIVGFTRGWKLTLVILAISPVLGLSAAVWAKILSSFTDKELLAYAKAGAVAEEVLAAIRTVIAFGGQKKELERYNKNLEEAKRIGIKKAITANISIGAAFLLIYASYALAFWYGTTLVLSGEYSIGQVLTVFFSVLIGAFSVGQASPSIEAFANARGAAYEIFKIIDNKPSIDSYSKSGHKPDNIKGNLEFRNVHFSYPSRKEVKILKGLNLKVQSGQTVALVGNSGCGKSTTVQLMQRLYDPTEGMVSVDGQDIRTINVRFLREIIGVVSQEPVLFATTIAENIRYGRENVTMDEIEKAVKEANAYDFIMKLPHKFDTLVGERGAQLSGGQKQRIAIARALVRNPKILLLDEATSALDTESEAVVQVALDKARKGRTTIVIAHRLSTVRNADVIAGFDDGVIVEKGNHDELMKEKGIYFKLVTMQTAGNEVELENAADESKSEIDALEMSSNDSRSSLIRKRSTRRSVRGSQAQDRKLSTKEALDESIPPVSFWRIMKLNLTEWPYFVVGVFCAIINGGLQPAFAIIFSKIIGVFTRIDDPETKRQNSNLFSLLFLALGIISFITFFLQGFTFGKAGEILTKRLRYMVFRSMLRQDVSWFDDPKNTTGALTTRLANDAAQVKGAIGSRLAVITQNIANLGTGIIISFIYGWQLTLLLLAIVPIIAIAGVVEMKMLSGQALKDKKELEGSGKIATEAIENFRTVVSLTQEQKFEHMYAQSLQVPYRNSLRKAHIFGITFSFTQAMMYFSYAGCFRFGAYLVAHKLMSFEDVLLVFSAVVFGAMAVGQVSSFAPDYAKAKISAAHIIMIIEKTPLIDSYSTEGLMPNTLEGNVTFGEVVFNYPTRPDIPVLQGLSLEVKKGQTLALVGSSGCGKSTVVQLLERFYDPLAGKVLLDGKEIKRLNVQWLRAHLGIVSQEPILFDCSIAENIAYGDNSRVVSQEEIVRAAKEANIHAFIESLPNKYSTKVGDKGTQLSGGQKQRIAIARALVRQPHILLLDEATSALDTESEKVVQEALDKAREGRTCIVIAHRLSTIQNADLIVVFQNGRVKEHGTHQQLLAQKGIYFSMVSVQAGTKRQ

With `COCc1c(C(C)C)nc(C(C)C)c(/C=C/[C@@H](O)C[C@@H](O)CC(=O)O)c1-c1ccc(F)cc1` [CERIVASTATIN] the Activity was “substrate [+]”.
